Results from ChEMBL document CHEMBL4507281, “Data for DCP probe BI-4394” (2021).

Columns and labels:
[1] = target: AP2-associated protein kinase 1 (Homo sapiens) (UniProt Q2M2I8); conditions: Compound concentration 100.0 nM
[2] = target: Tyrosine-protein kinase ABL1 (Homo sapiens) (UniProt P00519); conditions: Compound concentration 100.0 nM
[3] = target: RAC-beta serine/threonine-protein kinase (Homo sapiens) (UniProt P31751); conditions: Compound concentration 100.0 nM
[4] = target: T1, Aurora kinase A (Homo sapiens) (UniProt O14965); conditions: Compound concentration 100.0 nM
T1 sequence (whole entry): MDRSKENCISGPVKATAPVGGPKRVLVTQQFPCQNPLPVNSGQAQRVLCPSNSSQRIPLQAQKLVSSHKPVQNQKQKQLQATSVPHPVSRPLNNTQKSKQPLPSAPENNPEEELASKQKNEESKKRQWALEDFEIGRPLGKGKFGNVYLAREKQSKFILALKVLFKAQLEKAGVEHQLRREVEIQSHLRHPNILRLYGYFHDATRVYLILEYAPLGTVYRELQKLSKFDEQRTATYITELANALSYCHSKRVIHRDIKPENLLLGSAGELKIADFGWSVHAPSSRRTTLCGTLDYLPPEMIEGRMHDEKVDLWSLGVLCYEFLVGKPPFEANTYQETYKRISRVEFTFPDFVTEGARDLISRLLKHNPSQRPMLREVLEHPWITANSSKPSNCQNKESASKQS

[5] = tested on: Serine/threonine-protein kinase B-raf (Homo sapiens), P15056 [V600E]; conditions: Compound concentration 100.0 nM
[6] = target: Protein-tyrosine kinase 6 (Homo sapiens) (UniProt Q13882); conditions: Compound concentration 100.0 nM
[7] = target: Calcium/calmodulin-dependent protein kinase type II subunit delta (Homo sapiens) (UniProt Q13557); conditions: Compound concentration 100.0 nM
[8] = target: Death-associated protein kinase 3 (Homo sapiens) (UniProt O43293); conditions: Compound concentration 100.0 nM
[9] = target: Epithelial discoidin domain-containing receptor 1 (Homo sapiens) (UniProt Q08345); conditions: Compound concentration 100.0 nM
[10] = target: Mitogen-activated protein kinase kinase kinase 12 (Homo sapiens) (UniProt Q12852); conditions: Compound concentration 100.0 nM
[11] = tested on: Epidermal growth factor receptor (Homo sapiens), P00533 [G719C]; conditions: Compound concentration 100.0 nM
[12] = target: Ephrin type-B receptor 4 (Homo sapiens) (UniProt P54760); conditions: Compound concentration 100.0 nM
[13] = target: Ephrin type-B receptor 6 (Homo sapiens) (UniProt O15197); conditions: Compound concentration 100.0 nM
[14] = target: Fibroblast growth factor receptor 3 (Homo sapiens) (UniProt P22607); conditions: Compound concentration 100.0 nM
[15] = target: Receptor-type tyrosine-protein kinase FLT3 (Homo sapiens) (UniProt P36888); conditions: Compound concentration 100.0 nM
[16] = target: Tyrosine-protein kinase Fyn (Homo sapiens) (UniProt P06241); conditions: Compound concentration 100.0 nM
[17] = target: G protein-coupled receptor kinase 3 (Homo sapiens) (UniProt P35626); conditions: Compound concentration 100.0 nM
[18] = target: Inhibitor of nuclear factor kappa-B kinase subunit epsilon (Homo sapiens) (UniProt Q14164); conditions: Compound concentration 100.0 nM
[19] = target: Dual specificity mitogen-activated protein kinase kinase 6 (Homo sapiens) (UniProt P52564); conditions: Compound concentration 100.0 nM
[20] = target: Serine/threonine-protein kinase Nek9 (Homo sapiens) (UniProt Q8TD19); conditions: Compound concentration 100.0 nM
[21] = target: Serine/threonine-protein kinase PAK 1 (Homo sapiens) (UniProt Q13153); conditions: Compound concentration 100.0 nM
[22] = tested on: Phosphatidylinositol 4,5-bisphosphate 3-kinase catalytic subunit alpha isoform (Homo sapiens), P42336 [E545A]; conditions: Compound concentration 100.0 nM
[23] = target: Phosphatidylinositol 4,5-bisphosphate 3-kinase catalytic subunit beta isoform (Homo sapiens) (UniProt P42338); conditions: Compound concentration 100.0 nM
[24] = target: Phosphatidylinositol 4,5-bisphosphate 3-kinase catalytic subunit delta isoform (Homo sapiens) (UniProt O00329); conditions: Compound concentration 100.0 nM
[25] = target: cAMP-dependent protein kinase catalytic subunit PRKX (Homo sapiens) (UniProt P51817); conditions: Compound concentration 100.0 nM
[26] = target: Protein-tyrosine kinase 2-beta (Homo sapiens) (UniProt Q14289); conditions: Compound concentration 100.0 nM
[27] = tested on: Proto-oncogene tyrosine-protein kinase receptor Ret (Homo sapiens), P07949 [M918T]; conditions: Compound concentration 100.0 nM
[28] = target: Receptor-interacting serine/threonine-protein kinase 2 (Homo sapiens) (UniProt O43353); conditions: Compound concentration 100.0 nM
[29] = target: Rho-associated protein kinase 1 (Homo sapiens) (UniProt Q13464); conditions: Compound concentration 100.0 nM
[30] = target: Ribosomal protein S6 kinase alpha-3 (Homo sapiens) (UniProt P51812); conditions: Compound concentration 100.0 nM
[31] = target: Serine/threonine-protein kinase SIK2 (Homo sapiens) (UniProt Q9H0K1); conditions: Compound concentration 100.0 nM
[32] = target: Serine/threonine-protein kinase 16 (Homo sapiens) (UniProt O75716); conditions: Compound concentration 100.0 nM
[33] = target: Mitogen-activated protein kinase kinase kinase 7 (Homo sapiens) (UniProt O43318); conditions: Compound concentration 100.0 nM
[34] = target: Serine/threonine-protein kinase TNNI3K (Homo sapiens) (UniProt Q59H18); conditions: Compound concentration 100.0 nM
[35] = target: Serine/threonine-protein kinase VRK2 (Homo sapiens) (UniProt Q86Y07); conditions: Compound concentration 100.0 nM
[36] = target: Serine/threonine-protein kinase 25 (Homo sapiens) (UniProt O00506); conditions: Compound concentration 100.0 nM
[37] = target: 5-hydroxytryptamine receptor 2C (Homo sapiens) (UniProt P28335); conditions: Compound concentration 10.0 uM
[38] = target: GABA-A receptor; anion channel (Rattus norvegicus) (UniProt O09028+P15431+P18506+P18508+P19969+P20236+P23574+P23576+P28471+P28473+P30191+P62813+P63079+P63138+Q91ZM7+Q9ES14); conditions: Compound concentration 10.0 uM

AP2-associated protein kinase 1 (Homo sapiens), sequence (Q2M2I8 whole entry, looked up): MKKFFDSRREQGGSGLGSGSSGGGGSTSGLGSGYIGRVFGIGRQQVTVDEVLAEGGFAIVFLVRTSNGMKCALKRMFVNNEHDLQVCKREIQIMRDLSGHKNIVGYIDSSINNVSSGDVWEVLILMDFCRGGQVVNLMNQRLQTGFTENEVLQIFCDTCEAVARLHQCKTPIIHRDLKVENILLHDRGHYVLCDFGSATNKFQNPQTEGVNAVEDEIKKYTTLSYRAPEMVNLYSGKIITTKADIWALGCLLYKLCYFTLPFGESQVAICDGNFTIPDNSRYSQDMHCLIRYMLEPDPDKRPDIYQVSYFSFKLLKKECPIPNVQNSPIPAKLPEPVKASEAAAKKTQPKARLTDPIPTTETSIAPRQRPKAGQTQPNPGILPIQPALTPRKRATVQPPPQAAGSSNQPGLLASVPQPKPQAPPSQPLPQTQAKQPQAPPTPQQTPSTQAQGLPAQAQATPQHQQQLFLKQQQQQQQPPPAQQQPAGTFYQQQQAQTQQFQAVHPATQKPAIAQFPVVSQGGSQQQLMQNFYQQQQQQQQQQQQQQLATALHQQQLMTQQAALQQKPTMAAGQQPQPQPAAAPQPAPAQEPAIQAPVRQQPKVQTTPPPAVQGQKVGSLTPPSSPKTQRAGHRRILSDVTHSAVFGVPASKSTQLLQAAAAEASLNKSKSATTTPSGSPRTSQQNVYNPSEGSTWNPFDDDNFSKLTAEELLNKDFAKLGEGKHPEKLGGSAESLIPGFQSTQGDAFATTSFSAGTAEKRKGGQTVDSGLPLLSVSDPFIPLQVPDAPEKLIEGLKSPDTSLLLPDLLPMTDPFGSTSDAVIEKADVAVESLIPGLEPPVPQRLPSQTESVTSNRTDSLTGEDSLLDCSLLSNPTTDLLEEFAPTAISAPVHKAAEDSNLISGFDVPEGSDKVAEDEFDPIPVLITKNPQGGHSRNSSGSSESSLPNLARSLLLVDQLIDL
Calcium/calmodulin-dependent protein kinase type II subunit delta (Homo sapiens), sequence (Q13557 whole entry): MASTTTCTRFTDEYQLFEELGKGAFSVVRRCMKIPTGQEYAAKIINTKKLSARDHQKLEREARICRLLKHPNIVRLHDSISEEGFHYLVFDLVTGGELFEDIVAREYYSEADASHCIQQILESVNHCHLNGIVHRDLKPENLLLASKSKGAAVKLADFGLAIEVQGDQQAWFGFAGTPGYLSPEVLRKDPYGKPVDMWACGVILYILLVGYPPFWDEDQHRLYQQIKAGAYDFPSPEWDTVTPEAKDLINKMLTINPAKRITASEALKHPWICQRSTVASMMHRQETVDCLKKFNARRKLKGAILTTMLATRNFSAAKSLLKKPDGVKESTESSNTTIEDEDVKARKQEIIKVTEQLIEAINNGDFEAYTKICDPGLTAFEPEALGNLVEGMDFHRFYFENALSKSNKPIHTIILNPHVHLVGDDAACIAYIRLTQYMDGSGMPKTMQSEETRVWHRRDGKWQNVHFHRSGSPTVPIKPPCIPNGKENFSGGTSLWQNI
G protein-coupled receptor kinase 3 (Homo sapiens), sequence (P35626 whole entry): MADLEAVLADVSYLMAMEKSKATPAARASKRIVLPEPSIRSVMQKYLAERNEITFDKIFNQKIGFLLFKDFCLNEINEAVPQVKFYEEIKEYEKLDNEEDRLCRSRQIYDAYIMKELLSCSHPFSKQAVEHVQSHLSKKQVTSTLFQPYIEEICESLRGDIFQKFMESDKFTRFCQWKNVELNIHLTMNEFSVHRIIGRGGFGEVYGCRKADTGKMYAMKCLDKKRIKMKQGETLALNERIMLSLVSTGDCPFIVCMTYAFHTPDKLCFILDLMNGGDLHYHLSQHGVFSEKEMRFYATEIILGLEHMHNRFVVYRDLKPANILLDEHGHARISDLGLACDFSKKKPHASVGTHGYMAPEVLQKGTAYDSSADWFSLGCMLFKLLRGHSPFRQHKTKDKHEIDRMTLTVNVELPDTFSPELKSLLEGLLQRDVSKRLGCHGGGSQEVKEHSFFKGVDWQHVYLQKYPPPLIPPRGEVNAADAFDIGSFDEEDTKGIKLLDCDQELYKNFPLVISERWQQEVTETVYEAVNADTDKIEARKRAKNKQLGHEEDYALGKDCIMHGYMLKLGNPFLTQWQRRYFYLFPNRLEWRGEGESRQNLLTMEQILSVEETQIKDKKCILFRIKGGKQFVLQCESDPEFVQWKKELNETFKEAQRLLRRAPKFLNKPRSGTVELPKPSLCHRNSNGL
Serine/threonine-protein kinase Nek9 (Homo sapiens), sequence (Q8TD19 whole entry): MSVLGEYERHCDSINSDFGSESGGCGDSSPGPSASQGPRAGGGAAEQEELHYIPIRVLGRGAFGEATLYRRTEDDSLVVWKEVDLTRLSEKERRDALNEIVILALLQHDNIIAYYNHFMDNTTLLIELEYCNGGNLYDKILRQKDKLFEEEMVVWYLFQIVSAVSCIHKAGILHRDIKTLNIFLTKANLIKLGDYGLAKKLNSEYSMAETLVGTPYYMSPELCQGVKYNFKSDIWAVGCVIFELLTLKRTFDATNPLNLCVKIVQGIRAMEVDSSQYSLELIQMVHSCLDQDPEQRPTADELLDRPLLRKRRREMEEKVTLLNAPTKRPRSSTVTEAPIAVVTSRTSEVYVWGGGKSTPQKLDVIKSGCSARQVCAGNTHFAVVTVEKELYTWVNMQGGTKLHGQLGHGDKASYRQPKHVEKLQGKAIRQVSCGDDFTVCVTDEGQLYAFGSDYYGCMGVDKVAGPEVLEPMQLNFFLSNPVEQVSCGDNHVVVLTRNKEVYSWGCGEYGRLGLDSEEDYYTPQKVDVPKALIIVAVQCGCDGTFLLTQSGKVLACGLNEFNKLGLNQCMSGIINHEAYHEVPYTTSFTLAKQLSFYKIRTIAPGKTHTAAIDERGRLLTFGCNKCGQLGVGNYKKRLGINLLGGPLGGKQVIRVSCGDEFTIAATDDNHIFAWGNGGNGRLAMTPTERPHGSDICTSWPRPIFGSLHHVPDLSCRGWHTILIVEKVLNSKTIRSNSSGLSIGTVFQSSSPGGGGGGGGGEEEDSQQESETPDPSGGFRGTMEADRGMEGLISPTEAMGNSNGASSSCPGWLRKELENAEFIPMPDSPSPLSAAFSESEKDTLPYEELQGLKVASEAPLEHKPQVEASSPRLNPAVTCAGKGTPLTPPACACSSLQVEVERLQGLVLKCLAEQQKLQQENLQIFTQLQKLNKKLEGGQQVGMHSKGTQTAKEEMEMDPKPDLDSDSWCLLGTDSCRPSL
Dual specificity mitogen-activated protein kinase kinase 6 (Homo sapiens), sequence (P52564 whole entry): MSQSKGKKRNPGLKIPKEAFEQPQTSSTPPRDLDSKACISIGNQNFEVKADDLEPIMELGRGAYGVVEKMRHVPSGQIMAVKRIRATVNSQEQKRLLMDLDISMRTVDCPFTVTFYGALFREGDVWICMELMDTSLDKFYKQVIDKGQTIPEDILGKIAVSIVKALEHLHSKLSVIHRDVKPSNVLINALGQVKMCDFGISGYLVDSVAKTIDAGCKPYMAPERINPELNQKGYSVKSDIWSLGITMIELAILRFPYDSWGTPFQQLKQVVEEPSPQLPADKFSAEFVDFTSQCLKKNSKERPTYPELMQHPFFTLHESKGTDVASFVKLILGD
Serine/threonine-protein kinase 16 (Homo sapiens), sequence (O75716 whole entry): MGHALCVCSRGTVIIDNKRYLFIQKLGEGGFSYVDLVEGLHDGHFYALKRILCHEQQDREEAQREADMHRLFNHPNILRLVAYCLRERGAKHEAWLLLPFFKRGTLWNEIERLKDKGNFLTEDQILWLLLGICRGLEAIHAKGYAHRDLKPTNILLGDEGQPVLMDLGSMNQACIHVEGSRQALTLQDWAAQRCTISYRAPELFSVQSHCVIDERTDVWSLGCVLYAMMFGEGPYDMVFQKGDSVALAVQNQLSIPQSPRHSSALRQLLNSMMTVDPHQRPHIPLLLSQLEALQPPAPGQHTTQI
Protein-tyrosine kinase 2-beta (Homo sapiens), sequence (Q14289 whole entry, looked up): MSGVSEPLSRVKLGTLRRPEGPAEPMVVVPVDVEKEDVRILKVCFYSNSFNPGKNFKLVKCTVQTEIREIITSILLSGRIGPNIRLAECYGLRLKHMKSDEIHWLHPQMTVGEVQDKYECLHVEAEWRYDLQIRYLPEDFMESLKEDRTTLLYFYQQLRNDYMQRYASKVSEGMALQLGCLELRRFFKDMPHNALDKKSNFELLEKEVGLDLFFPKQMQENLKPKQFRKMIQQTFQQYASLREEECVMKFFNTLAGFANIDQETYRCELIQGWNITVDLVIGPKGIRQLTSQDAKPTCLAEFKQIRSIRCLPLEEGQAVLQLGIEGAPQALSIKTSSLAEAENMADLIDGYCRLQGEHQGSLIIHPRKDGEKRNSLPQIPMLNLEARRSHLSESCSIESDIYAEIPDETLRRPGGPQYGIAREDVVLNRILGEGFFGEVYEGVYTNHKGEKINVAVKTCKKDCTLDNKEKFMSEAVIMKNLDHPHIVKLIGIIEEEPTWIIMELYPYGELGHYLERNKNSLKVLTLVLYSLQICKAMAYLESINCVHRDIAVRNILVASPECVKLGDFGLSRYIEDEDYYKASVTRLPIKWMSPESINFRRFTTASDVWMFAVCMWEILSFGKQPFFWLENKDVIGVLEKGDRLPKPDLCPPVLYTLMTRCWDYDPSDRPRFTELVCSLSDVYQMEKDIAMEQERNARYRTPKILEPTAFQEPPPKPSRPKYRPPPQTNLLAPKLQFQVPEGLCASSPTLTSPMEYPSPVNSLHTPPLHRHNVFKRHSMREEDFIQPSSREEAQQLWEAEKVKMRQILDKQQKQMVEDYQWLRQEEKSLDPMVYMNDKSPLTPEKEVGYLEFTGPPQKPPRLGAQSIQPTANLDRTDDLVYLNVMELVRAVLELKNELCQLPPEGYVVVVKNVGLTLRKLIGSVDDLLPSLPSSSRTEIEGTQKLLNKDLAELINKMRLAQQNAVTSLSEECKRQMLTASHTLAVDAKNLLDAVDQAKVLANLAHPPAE

Structure (SMILES) | residual activity [1] [%] | residual activity [2] [%] | residual activity [3] [%] | residual activity [4] [%] | residual activity [5] [%] | residual activity [6] [%] | residual activity [7] [%] | residual activity [8] [%] | residual activity [9] [%] | residual activity [10] [%] | residual activity [11] [%] | residual activity [12] [%] | residual activity [13] [%] | residual activity [14] [%] | residual activity [15] [%] | residual activity [16] [%] | residual activity [17] [%] | residual activity [18] [%] | residual activity [19] [%] | residual activity [20] [%] | also measured
Cn1nc(C(=O)NCc2ccc(C(=O)O)cc2)cc1-c1ccc2[nH]ccc2c1 [BI 4395] | 90 | 62 | 96 | 100 | 89 | 89 | 83 | 86 | 89 | 100 | 76 | 100 | 96 | 93 | 95 | 98 | 81 | 100 | 100 | 99 | residual activity [21]: 86%; residual activity [22]: 77%; residual activity [23]: 82%; residual activity [24]: 97%; residual activity [25]: 71%; residual activity [26]: 96%; residual activity [27]: 49%; residual activity [28]: 100%; residual activity [29]: 93%; residual activity [30]: 70%; residual activity [31]: 90%; residual activity [32]: 86%; residual activity [33]: 95%; residual activity [34]: 100%; residual activity [35]: 91%; residual activity [36]: 91%; inhibition [37]: -9.67%; inhibition [38]: 26.6%
CCOC(=O)c1cc2cc(-c3cc(C(=O)NCc4ccc(C(=O)O)cc4)nn3C)ccc2[nH]1 [BI 4394] | 100 | 94 | 100 | 90 | 100 | 98 | 91 | 98 | 100 | 79 | 100 | 99 | 77 | 97 | 98 | 100 | 96 | 66 | 100 | 98 | residual activity [21]: 92%; residual activity [22]: 84%; residual activity [23]: 88%; residual activity [24]: 65%; residual activity [25]: 100%; residual activity [26]: 100%; residual activity [27]: 100%; residual activity [28]: 100%; residual activity [29]: 78%; residual activity [30]: 80%; residual activity [31]: 100%; residual activity [32]: 78%; residual activity [33]: 80%; residual activity [34]: 100%; residual activity [35]: 98%; residual activity [36]: 100%; inhibition [37]: 3.56%; inhibition [38]: 15.3%
